The numbers were not newly measured in patent publication US20160310552A1, “NORTHERN WHITE KIDNEY BEAN EXTRACT AND CERATONIA SILIQUA EXTRACT IN COMBINATION WITH GREEN TEA EXTRACT IN THE TREATMENT OF EXCESS WEIGHT AND OBESITY” (priority 2015, published 2016), which cites them from elsewhere.

Structures are written as SMILES.

The conditions of data set [1]: during a 12 month period.
The conditions of data set [2]: preliminary data; 10% with placebo.

For the compound `CC(C)CC(N(C)C)C1(c2ccc(Cl)cc2)CCC1` (centres unmarked) [sibutramine], the Weight loss in data set [1] was 5-10%. For the same compound, the “Subjects who died or had a heart attack, a stroke or cardiac arrest” value in data set [2] was 11.4%.
